Measured values taken from patent publication US5948782A, “Pharmaceutical composition containing quinoline and quinazoline derivatives and novel compounds therefor” (Takeda Chemical, priority 1992, dated 1999).

Assays:
[1] = system: Rat Adjuvant Arthritis; experiment: Effects on Rat Adjuvant Arthritis; assay type: in vivo; details: 336 h, Lewis rats, 50 mg/kg once a day for 14 days; for change in vivo at 50 mg/kg: based on drug-unadministered rats, read-out: Increase rate of body weight (%); for inhibition in vivo at 50 mg/kg: left hind leg, 14th day, read-out: Swelling inhibitory rate (%)
[2] = system: mouse phenylquinone writhing; experiment: Analgesic Activity in Mice (phenylquinone writhing model); assay type: in vivo; details: Slc:ICR mice, 50 mg/kg orally, 20 minutes
Description: Analgesic Activity in Mice
A drug (50 mg/kg) suspended in 5% acacia was administered orally to Slc:ICR mice (male, 4 weeks old). After 30 minutes, a 0.02% phenylquinone solution (0.1 ml/[…]) in 5% ethanol was administered intraperitoneally. Writhing and stretching reactions for 20 minutes after the injection were calculated for each mouse to evaluate analgesic activity of the test drug [Siegmund, E. et al.; Proc. Soc. Exp. Biol. Med., 95, 729 (1957)].

[3] = system: Rat Carrageenin Paw Edema; experiment: Rat Carrageenin Paw Edema Inhibitory Activity; assay type: in vivo; details: Jcl:SD rats, 50 mg/kg orally, 3 hours after carrageenin
Description: Rat Carrageenin Paw Edema Inhibitory Activity
The volume of a planter part of a right hind leg of Jcl:SD rats (male, 6 weeks old) was measured, and then suspension of a test drug (50 mg/kg) in 5% acacia was administered orally. Then water was administered additionally so that the total amount of administered liquid became 5 ml/rat. After 1 hour, a suspension (0.05 ml) containing 1% carrageenin in physiological saline was injected intradermally into the plantar to induce swelling [Winter, C. A. et al; Proc. Soc. Exp. Biol. Med., 111, 544 (1962)]. The volume of the right hind leg was measured again 3 hours after the carrageenin injection, and swelling inhibitory rate was calculated from the difference in the volumes before and after the injection.

[4] = system: mice; experiment: Oral toxicity in mice; assay type: in vivo; details: 300 mg/kg administered orally to mice
Description: The compounds of the present invention have low toxicity. For example, when 300 mg/kg of the compounds prepared in Examples 36, 45, 47, 54 and 64 were administered orally to mice, no mice died. Therefore, the compounds of the present invention are useful as an anti-inflammatory agent, particularly an agent for treating arthritis producing inflammatory symptoms, in humans and other mammals.

[5] = system: IL-1β; experiment: Anti-IL-1 activity (extracellular substrates of rat cartilage cells); assay type: cell-based; details: 72 h, IL-1β 0.2 ng/ml, 3 days, read-out: IL-1 inhibitory activity (%)
Description: Rat cartilage cells were prepared according to the known method [Fujio Suzuki et al., Sin Seikagaku Jikken Kohza, 18, p.871-875 (1990)] and cultivated in Dulbecco's Medium containing 10% fetal bovine serum. After 8 days, various concentrations of a test drug and IL-1β (0.2 ng/ml) were added, and the cells were cultivated for additional 3 days. The amount of extracellular substrates thus produced was determined.
Although IL-1β inhibits the synthesis of extracellular substrates of cartilage cells, addition of the drug inhibits the IL-1 activity and the amount of extracellular substrates synthesized was recovered.

[6] = system: Antigen-responsive T cell; experiment: Antigen-Responsive T Cell Growth Inhibitory Activity (PPD-stimulated 3H-Tdr incorporation); assay type: cell-based, Lewis rats; details: PPD 2 μg/ml, Lewis rat T cells, read-out: Antigen-responsive T cell growth inhibitory rate (%)
Description: Antigen-Responsive T Cell Growth Inhibitory Activity
According to the method of Test Example 1, adjuvant arthritis was induced in Lewis rats (male, 7 weeks old). After 14 days, lymphonodi inguinales were excised. Then, a single-cell suspension was prepared by using RPMI-1640 medium containing 5% fetal bovine serum and then incubated at 37° C. for 1 hour in a nylon wool column. The cells were eluted from the column with the same medium. The non-adsorptive cell-fraction was used as T cells.
On the other hand, spleen cells were taken out from unsensitized Lewis rats (male, 8 to 9 weeks old) and irradiated with soft X-rays (20,000 R). To the spleen cells (1×10^5 cells/well) were added the above T cells (5×10^5 cells/well), PPD (Purified Protein Derivatives; final concentration: 2 μg/ml) and 2% Lewis rat serum (treated at 56° C. for 30 minutes). The mixture was incubated at 37° C. for 72 hours in a 5% carbonic acid incubator. Further, ^3 H-Tdr (0.5 μCi/well) was added followed by incubation for 24 hours. The cells were recovered, and the radioactivity of ^3 H-Tdr incorporated into the cells was determined. The test drug was added to the cell suspension just before the addition of PPD, and effects on incorporation of ^3 H-Tdr into the cells were observed.

Structure (SMILES)	change in vivo at 50 mg/kg [1]	inhibition in vivo at 50 mg/kg [1]	inhibition at 1 µM [6]	inhibition at 10 µM [6]	also measured
CCOC(=O)c1c(CSc2nncn2C)nc2cc(OC)c(OC)cc2c1-c1ccc(OC)c(OC)c1 [Example 35, ethyl 6,7-dimethoxy-4-(3,4-dimethoxyphenyl)-2-[(4-methyl-1,2,4-triazol-3-yl)thiomethyl]quinoline-3-carboxylate]	11%	64%	–	–	–
CCOC(=O)c1c(CSc2nc3ccccc3[nH]2)nc2cc(OC)c(OC)cc2c1-c1ccc(OC)cc1 [Example 27, ethyl 6,7-dimethoxy-4-(4-methoxyphenyl)-2-[(benzimidazol-2-yl)thiomethyl]quinoline-3-carboxylate]	–	–	–	–	Inhibitory rate (%) [2]: 39%
CCOC(=O)c1c(CSc2nc3ccc(F)cc3[nH]2)nc2cc(OC)c(OC)cc2c1-c1ccc(OC)c(OC)c1 [Example 54, ethyl 6,7-dimethoxy-4-(3,4-dimethoxyphenyl)-2-[(5-fluorobenzimidazol-2-yl)thiomethyl]quinoline-3-carboxylate]	–	–	–	–	Swelling inhibitory rate (%) [3]: 21%; mortality [4]: no mice died
CCOC(=O)c1c(CSc2nccn2C)nc2cc(OC)c(OC)cc2c1-c1ccc2c(c1)OCO2 [Example 69, ethyl 6,7-dimethoxy-4-(3,4-methylenedioxyphenyl)-2-[(1-methylimidazol-2-yl)thiomethyl]quinoline-3-carboxylate]	17%	63%	–	–	–
CCOC(=O)c1c(CSCc2ccc(Cl)cc2)nc2cc(OC)c(OC)cc2c1-c1ccc(OC)c(OC)c1 [Example 41, ethyl 6,7-dimethoxy-4-(3,4-dimethoxyphenyl)-2-[(4-chlorophenyl)methylthiomethyl]quinoline-3-carboxylate]	–	–	–	–	inhibition at 1 µM [5]: 17%; inhibition at 10 µM [5]: 50%
CCOC(=O)c1c(CSc2nccc(=O)[nH]2)nc2cc(OC)c(OC)cc2c1-c1ccc(OC)c(OC)c1 [Example 45, ethyl 6,7-dimethoxy-4-(3,4-dimethoxyphenyl)-2-[(6(1H)-pyrimidon-2-yl)thiomethyl]quinoline-3-carboxylate]	–	–	36%	70%	mortality [4]: no mice died
CCOC(=O)c1c(CSc2nc3ccccc3s2)nc2cc(OC)c(OC)cc2c1-c1ccc(OC)c(OC)c1 [Example 60, ethyl 6,7-dimethoxy-4-(3,4-dimethoxyphenyl)-2-[(benzothiazol-2-yl)thiomethyl]quinoline-3-carboxylate]	–	–	59%	91%	Swelling inhibitory rate (%) [3]: 31%
CCOC(=O)c1c(C[S+]([O-])c2nccn2C)nc2cc(OC)c(OC)cc2c1-c1ccc(OC)c(OC)c1 (stereo not drawn) [Example 2, ethyl 6,7-dimethoxy-4-(3,4-dimethoxyphenyl)-2-[(1-methylimidazol-2-yl)sulfinylmethyl]quinoline-3-carboxylate]	39%	73%	–	–	–
COc1ccc(-c2nc(CCc3nccn3C)nc3cc(OC)c(OC)cc23)cc1OC [Example 88, 6,7-dimethoxy-4-(3,4-dimethoxyphenyl)-2-[2-(1-methylimidazol-2-yl)ethyl]quinazoline]	24%	62%	–	–	–
CCOC(=O)c1c(CSc2ccc(Cl)cc2)nc2cc(OC)c(OC)cc2c1-c1ccc(OC)c(OC)c1 [Example 42, ethyl 6,7-dimethoxy-4-(3,4-dimethoxyphenyl)-2-[(4-chlorophenyl)thiomethyl]quinoline-3-carboxylate]	–	–	–	–	Inhibitory rate (%) [2]: 47%
CCOC(=O)c1c(CSc2ncccc2O)nc2cc(OC)c(OC)cc2c1-c1ccc(OC)c(OC)c1 [Example 46, ethyl 6,7-dimethoxy-4-(3,4-dimethoxyphenyl)-2-[(3-hydroxypyridin-2-yl)thiomethyl]quinoline-3-carboxylate]	–	–	39%	92%	–
CCOC(=O)c1c(CSc2nccn2C)nc2cc(OC)c(OC)cc2c1-c1ccc(OC)c(OC)c1 [Example 36, ethyl 6,7-dimethoxy-4-(3,4-dimethoxyphenyl)-2-[(1-methylimidazol-2-yl)thiomethyl]quinoline-3-carboxylate]	30%	48%	33%	79%	inhibition at 1 µM [5]: 22%; inhibition at 10 µM [5]: 48%; mortality [4]: no mice died; Inhibitory rate (%) [2]: 59%
CCOC(=O)c1c(CSc2nccn2C)nc2cc(OC)c(OC)cc2c1-c1ccc(C)cc1 [Example 33, ethyl 6,7-dimethoxy-4-(4-methylphenyl)-2-[(1-methylimidazol-2-yl)thiomethyl]quinoline-3-carboxylate]	12%	67%	–	–	–
CCOC(=O)c1c(CCc2nccn2C)nc2cc(OC)c(OC)cc2c1-c1ccc(OC)c(OC)c1 [Example 87, ethyl 6,7-dimethoxy-4-(3,4-dimethoxyphenyl)-2-[2-(1-methylimidazol-2-yl)ethyl]quinoline-3-carboxylate]	27%	75%	–	–	–
CCOC(=O)c1c(CSc2nccn2C)nc2cc(OC)c(OC)cc2c1-c1ccc(OC)cc1 [Example 28, ethyl 6,7-dimethoxy-4-(4-methoxyphenyl)-2-[(1-methylimidazol-2-yl)thiomethyl]quinoline-3-carboxylate]	–	–	–	–	inhibition at 1 µM [5]: 34%; inhibition at 10 µM [5]: 44%; Inhibitory rate (%) [2]: 43%
CCOC(=O)c1c(CSc2nc3ccccc3[nH]2)nc2cc(OC)c(OC)cc2c1-c1ccc(OC)c(OC)c1 [Example 53, ethyl 6,7-dimethoxy-4-(3,4-dimethoxyphenyl)-2-[(benzimidazol-2-yl)thiomethyl]quinoline-3-carboxylate]	–	–	51%	91%	inhibition at 1 µM [5]: 39%; inhibition at 10 µM [5]: 71%
CCOC(=O)c1c(CSc2nccn2C)nc2cc(OCC)c(OCC)cc2c1-c1ccc(OC)c(OC)c1 [Example 72, ethyl 6,7-diethoxy-4-(3,4-dimethoxyphenyl)-2-[(1-methylimidazol-2-yl)thiomethyl]quinoline-3-carboxylate]	27%	50%	–	–	–
CCOC(=O)c1c(CSc2nnc3ccccn23)nc2cc(OC)c(OC)cc2c1-c1ccc(OC)c(OC)c1 [Example 66, ethyl 6,7-dimethoxy-4-(3,4-dimethoxyphenyl)-2-[(pyrido[1,2-a][1,3,4]triazol-5-yl)thiomethyl]quinoline-3-carboxylate]	–	–	–	–	Inhibitory rate (%) [2]: 58%
CCOC(=O)c1c(C[S+]([O-])c2nc3ccccc3[nH]2)nc2cc(OC)c(OC)cc2c1-c1ccc(OC)c(OC)c1 (stereo not drawn) [Example 3, ethyl 2-[(2-benzimidazolyl)sulfinylmethyl]-6,7-dimethoxy-4-(3,4-dimethoxyphenyl)quinoline-3-carboxylate]	–	–	–	–	Swelling inhibitory rate (%) [3]: 23%
CCOC(=O)c1c(CSC2=NCCS2)nc2cc(OC)c(OC)cc2c1-c1ccc(OC)c(OC)c1 [Example 47, ethyl 6,7-dimethoxy-4-(3,4-dimethoxyphenyl)-2-[(2-thiazolin-2-yl)thiomethyl]quinoline-3-carboxylate]	–	–	61%	93%	mortality [4]: no mice died
